The results in this text go back to patent US9688865B2, “Liquid composition, pigment dispersion liquid, and aqueous ink composition for ink jet recording” (Seiko Epson Corporation, priority 2015, dated 2017).

Series [1] in a line: physchem.
Series [2] is described as follows: Distribution coefficient of water-octanol (log P), OECD Test Guideline 107.

The logP is the decadic logarithm of the partition coefficient of the neutral form, usually between octanol and water. Read a high logP as higher lipophilicity. Take `OCC(CO)(CO)CO` [Pentaerythritol]: in series [1], the logP is -2.36.
The compound `CCCCCCCC(=O)OCC(CO)(CO)CO` [Pentaerythritol caprylate, pentaerythritol caprylate] returned a log partition coefficient (logP) in series [2] of 2.29.
